One experiment deals with EGFR Del19/T790M/C797S (Homo sapiens, UniProt P00533, C797S/T790M, form not given). As to the kind of experiment: Enzyme IC50, EGFR Del19/T790M/C797S. It is filed as biochemical.
For experiment [1], the system named is BaF3-EGFR (Del19/T790M/C797S) cells. As to the kind of experiment: Inhibitory activity on Ba/F3 cell proliferation (CellTiter-Glo, 72 hours). It is filed as cell-based. The conditions noted are these: Ba/F3 cells expressing EGFR Del19/T790M/C797S. Here is the method: (§1) The following experiments were performed to evaluate the inhibitory activity of the compound represented by Chemical Formula 1 according to the present invention on the proliferation of Ba/F3 cells expressing EGFR mutants.
(§2) BaF3-EGFR (WT) and BaF3-EGFR (Del19/T790M/C797S) cells were seeded in a clear bottom white 96-well plate at a density of 3×10^3/100 μl/well, and then 0.5 μl/well of the culture medium, containing the compounds at 12 concentrations (0.00001-2 mM) serially diluted in 3 folds and the DMSO control, was added to a final concentration of 0.00005-10 μM, followed by culturing in a 37° C. CO2 incubator for 72 hours. After 72 hours, the plates treated with the compounds were taken out, treated with 100 μl/well of CellTiter-Glo® 2.0 Assay (Promega) solution, and mixed well. After mixing well at room temperature for about 10 minutes, […] was measured using a microplate reader. As to Data, GI50 (μM) values were calculated using GraphPad Prism 8.3.0 (GraphPad software Inc., San Diego) as percentages in proportion to vehicle-based treated cells. The result values were calculated as a cell growth rate (%) compared to the control group. A graph was created using the GraphPad Prism version 5.0 program, and GI50 (μM) values were calculated.

The next experiment has as its system BaF3-EGFR (WT) cells. The description is as above. Type of experiment: cell-based. Particulars: Ba/F3 cells expressing EGFR WT. Here is the method:
as §1, §2

Chain of EGFR Del19/T790M/C797S (P00533 25-1210 T790M/C797S, form open): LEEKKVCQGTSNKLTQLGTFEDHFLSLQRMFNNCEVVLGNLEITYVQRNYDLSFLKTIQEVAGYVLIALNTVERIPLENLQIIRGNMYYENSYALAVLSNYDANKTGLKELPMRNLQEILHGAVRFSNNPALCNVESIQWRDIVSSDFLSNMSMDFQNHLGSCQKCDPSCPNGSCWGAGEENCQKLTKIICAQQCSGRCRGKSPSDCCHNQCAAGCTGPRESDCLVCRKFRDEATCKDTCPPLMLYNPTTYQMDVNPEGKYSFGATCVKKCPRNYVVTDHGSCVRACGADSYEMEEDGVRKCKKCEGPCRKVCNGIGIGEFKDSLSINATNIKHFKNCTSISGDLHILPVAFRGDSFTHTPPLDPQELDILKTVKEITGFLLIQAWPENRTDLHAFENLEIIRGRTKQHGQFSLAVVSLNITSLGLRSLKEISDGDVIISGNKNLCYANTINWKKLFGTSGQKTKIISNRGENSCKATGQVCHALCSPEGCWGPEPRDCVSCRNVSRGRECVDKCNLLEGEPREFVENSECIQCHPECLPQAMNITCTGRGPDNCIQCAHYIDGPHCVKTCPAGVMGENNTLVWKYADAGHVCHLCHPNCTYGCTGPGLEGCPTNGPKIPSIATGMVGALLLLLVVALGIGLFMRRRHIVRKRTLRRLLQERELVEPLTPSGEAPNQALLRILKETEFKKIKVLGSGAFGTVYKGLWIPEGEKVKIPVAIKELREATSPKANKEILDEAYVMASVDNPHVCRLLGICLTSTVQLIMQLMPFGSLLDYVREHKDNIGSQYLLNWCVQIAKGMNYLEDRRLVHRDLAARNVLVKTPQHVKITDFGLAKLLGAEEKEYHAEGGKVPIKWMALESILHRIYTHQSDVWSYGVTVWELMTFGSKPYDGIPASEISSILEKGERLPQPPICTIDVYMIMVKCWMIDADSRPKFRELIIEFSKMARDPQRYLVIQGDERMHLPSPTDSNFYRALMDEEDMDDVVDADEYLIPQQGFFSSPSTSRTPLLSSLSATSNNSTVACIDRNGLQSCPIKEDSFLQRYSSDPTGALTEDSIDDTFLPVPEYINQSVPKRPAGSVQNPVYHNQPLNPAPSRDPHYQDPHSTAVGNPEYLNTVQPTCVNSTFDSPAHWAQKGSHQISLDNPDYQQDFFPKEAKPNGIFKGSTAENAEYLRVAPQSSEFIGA

For the compound `Cc1cc(Nc2nc(Nc3ccc4nccnc4c3P(C)(C)=O)c3cc[nH]c3n2)c2c(c1N1CCOCC1)CCO2` [Example 122, dimethyl (6-((2-((5-methyl-4-morpholino-2,3-dihydrobenzo-furan-7-yl)amino)-7H-pyrrolo[2,3-d]pyrimidin-4-yl)amino)quinoxalin-5-yl)phosphine oxide], the IC50 against EGFR Del19/T790M/C797S is at most 0.05 µM. Moreover, the GI50 (in experiment [1]; in the experiment on BaF3-EGFR (WT) cells) was over 0.1 µM each time.
Compound `COc1nc(N2CCN(C)CC2)c(-c2cnn(C)c2)cc1Nc1nc(Nc2ccc3nccnc3c2P(C)(C)=O)c2cc[nH]c2n1` [Example 44, (6-((2-((2-methoxy-5-(1-methyl-1H-pyrazol-4-yl)-6-(4-methyl-piperazin-1-yl)pyridin-3-yl)amino)-7H-pyrrolo[2,3-d]pyrimidin-4-yl)amino)quinoxalin-5-yl)dimethyl-phosphine oxide] yielded an IC50 against EGFR Del19/T790M/C797S of at most 0.05 µM. Moreover, the figures for the GI50 (in experiment [1]; in the experiment with BaF3-EGFR (WT) cells) were at most 0.05 µM and over 0.1 µM, respectively.
Compound `Cn1cc(-c2cc(Nc3nc(Nc4ccc5nccnc5c4P(C)(C)=O)c4cc[nH]c4n3)c3c(c2N2CCC(N4CCOCC4)CC2)CCO3)cn1` [Example 120, dimethyl (6-((2-((5-(1-methyl-1H-pyrazol-4-yl)-4-(4-morpholino-piperidin-1-yl)-2,3-dihydrobenzo-furan-7-yl)amino)-7H-pyrrolo[2,3-d]pyrimidin-4-yl)amino)quinoxalin-5-yl)phosphine oxide] displayed an IC50 on EGFR Del19/T790M/C797S of at most 0.05 µM. Also, the GI50 in experiment [1] is at most 0.05 µM; in the experiment with BaF3-EGFR (WT) cells, 0.05 to 0.1 µM.
`COc1cc(N2CCN(C(=O)C3(F)CC3)CC2)c(-c2cnn(C)c2)cc1Nc1nc(Nc2ccc3nccnc3c2P(C)(C)=O)c2cc[nH]c2n1` [Example 112, (4-(4-((4-((5-(dimethyl-phosphoryl)quinoxalin-6-yl)amino)-7H-pyrrolo[2,3-d]pyrimidin-2-yl)amino)-5-methoxy-2-(1-methyl-1H-pyrazol-4-yl)phenyl)piperazin-1-yl)(1-fluorocyclo-propyl) methanone]: the IC50 against EGFR Del19/T790M/C797S was in the range of 0.05 to 0.1 µM. Further, the GI50 in experiment [1] was at most 0.05 µM; with BaF3-EGFR (WT) cells it was over 0.1 µM.
The matching figures for `Cc1cc(Nc2nc(Nc3ccc4nccnc4c3P(C)(C)=O)c3cc[nH]c3n2)c(OCC(F)(F)F)cc1N1CCN(C)CC1` [Example 9, dimethyl (6-((2-((5-methyl-4-(4-methylpiperazin-1-yl)-2-(2,2,2-trifluoroethoxy)phenyl)amino)-7H-pyrrolo[2,3-d]pyrimidin-4-yl)amino)quinoxalin-5-yl)phosphine oxide]: at most 0.05 µM, over 0.1 µM and over 0.1 µM.
The compound `COc1cc(N2CCN(C)CC2)c(-c2cnn(C(F)F)c2)cc1Nc1nc(Nc2ccc3nccnc3c2P(C)(C)=O)c2cc[nH]c2n1` [Example 50, (6-((2-((5-(1-(difluoromethyl)-1H-pyrazol-4-yl)-2-methoxy-4-(4-methyl-piperazin-1-yl)phenyl)amino)-7H-pyrrolo[2,3-d]pyrimidin-4-yl)amino)quinoxalin-5-yl)dimethyl-phosphine oxide] displayed an IC50 on EGFR Del19/T790M/C797S of at most 0.05 µM. Further, the figures for the GI50 (in experiment [1]; with BaF3-EGFR (WT) cells) were at most 0.05 µM and over 0.1 µM, respectively.
Turning to `CCN1CCN(c2cc(OC)c(Nc3nc(Nc4ccc5nccnc5c4P(C)(C)=O)c4cc[nH]c4n3)cc2-c2cnn(C(C)C)c2)CC1` [Example 48, (6-((2-((4-(4-ethylpiperazin-1-yl)-5-(1-isopropyl-1H-pyrazol-4-yl)-2-methoxyphenyl)amino)-7H-pyrrolo[2,3-d]pyrimidin-4-yl)amino)quinoxalin-5-yl)dimethyl-phosphine oxide], on EGFR Del19/T790M/C797S, the IC50 was at most 0.05 µM. The GI50 (in experiment [1]; in the experiment with BaF3-EGFR (WT) cells) was over 0.1 µM in each case.
Take `Cn1ncc(Nc2nc(Nc3ccc4nccnc4c3P(C)(C)=O)c3cc[nH]c3n2)c1Cl` [Example 137, (6-((2-((5-chloro-1-methyl-1H-pyrazol-4-yl)amino)-7H-pyrrolo[2,3-d]pyrimidin-4-yl)amino)quinoxalin-5-yl)dimethyl-phosphine oxide]: on EGFR Del19/T790M/C797S, the IC50 is at most 0.05 µM. Besides, the GI50 (in experiment [1]; in the experiment on BaF3-EGFR (WT) cells) was over 0.1 µM in each case.
At EGFR Del19/T790M/C797S, `COc1cc(N2CC3(CCOCC3)C2)c(-c2cnn(C)c2)cc1Nc1nc(Nc2ccc3nccnc3c2P(C)(C)=O)c2cc[nH]c2n1` [Example 33, (6-((2-((2-methoxy-5-(1-methyl-1H-pyrazol-4-yl)-4-(7-oxa-2-azaspiro[3.5]nonane-2-yl)phenyl)amino)-7H-pyrrolo[2,3-d]pyrimidin-4-yl)amino)quinoxalin-5-yl)dimethyl-phosphine oxide] displayed an IC50 of at most 0.05 µM. In addition, the GI50 (in experiment [1]; in the experiment with BaF3-EGFR (WT) cells) was over 0.1 µM each time.
In turn, `CN1CCN(C2CCN(c3cc(OCC(F)(F)F)c(Nc4nc(Nc5ccc6nccnc6c5P(C)(C)=O)c5cc[nH]c5n4)cc3-c3cnn(C)c3)CC2)CC1` [Example 4, dimethyl (6-((2-((5-(1-methyl-1H-pyrazol-4-yl)-4-(4-(4-methylpiperazin-1-yl)piperidin-1-yl)-2-(2,2,2-trifluoroethoxy)phenyl)amino)-7H-pyrrolo[2,3-d]pyrimidin-4-yl)amino)quinoxalin-5-yl) phosphine oxide] yielded an IC50 against EGFR Del19/T790M/C797S of at most 0.05 µM. In addition, the GI50 in experiment [1] is 0.05 to 0.1 µM; in the experiment on BaF3-EGFR (WT) cells it was over 0.1 µM.
The matching figures for `COc1cc(N2CCN(C)CC2)c(-c2cnn(C)c2)cc1Nc1nc(Nc2ccc3nccnc3c2P(C)(C)=O)c2cc[nH]c2n1` [Example 21, (6-((2-((2-methoxy-5-(1-methyl-1H-pyrazol-4-yl)-4-(4-methylpiperazin-1-yl)phenyl)amino)-7H-pyrrolo[2,3-d]pyrimidin-4-yl)amino)quinoxalin-5-yl) dimethyl-phosphine oxide]: at most 0.05 µM, at most 0.05 µM and over 0.1 µM.
The matching figures for `COc1cc(N2CCC(N3CCN(C)CC3)CC2)c(-c2cnn(C)c2)cc1Nc1nc(Nc2ccc3nccnc3c2P(C)(C)=O)c2nc[nH]c2n1` [Example 105, (6-((2-((2-methoxy-5-(1-methyl-1H-pyrazol-4-yl)-4-(4-(4-methylpiperazin-1-yl)piperidin-1-yl)phenyl)amino)-9H-purin-6-yl)amino)quinoxalin-5-yl)dimethyl-phosphine oxide]: at most 0.05 µM, over 0.1 µM and over 0.1 µM.
In the same order, the values of `COc1cc(N(C)CCN(C)C)c(-c2cnn(C)c2)cc1Nc1nc(Nc2ccc3nccnc3c2P(C)(C)=O)c2cc[nH]c2n1` [Example 36, (6-((2-((4-((2-(dimethylamino)ethyl) (methyl)amino)-2-methoxy-5-(1-methyl-1H-pyrazol-4-yl)phenyl)amino)-7H-pyrrolo[2,3-d]pyrimidin-4-yl)amino)quinoxalin-5-yl)dimethyl-phosphine oxide] are at most 0.05 µM, at most 0.05 µM and over 0.1 µM.
As for `COc1cc(N2CCN(C)CC2)c(-c2ccsc2)cc1Nc1nc(Nc2ccc3nccnc3c2P(C)(C)=O)c2cc[nH]c2n1` [Example 76, (6-((2-((2-methoxy-4-(4-methylpiperazin-1-yl)-5-(thiophen-3-yl)phenyl)amino)-7H-pyrrolo[2,3-d]pyrimidin-4-yl)amino)quinoxalin-5-yl)dimethyl-phosphine oxide], the IC50 against EGFR Del19/T790M/C797S is at most 0.05 µM. Moreover, the GI50 (in experiment [1]; in the experiment with BaF3-EGFR (WT) cells) was over 0.1 µM in each case.
In turn, `Cn1nccc1-c1ccc(Nc2nc(Nc3ccc4nccnc4c3P(C)(C)=O)c3cc[nH]c3n2)c2c1OCCO2` [Example 131, dimethyl (6-((2-((8-(1-methyl-1H-pyrazol-5-yl)-2,3-dihydrobenzo [b][1,4]dioxin-5-yl)amino)-7H-pyrrolo[2,3-d]pyrimidin-4-yl)amino)quinoxalin-5-yl)phosphine oxide] displayed an IC50 on EGFR Del19/T790M/C797S of over 0.1 µM. Further, the GI50 (in experiment [1]; with BaF3-EGFR (WT) cells) was over 0.1 µM each time.
Turning to `COc1cc(N2CCN(C)CC2)c(-c2ccccc2)cc1Nc1nc(Nc2ccc3nccnc3c2P(C)(C)=O)c2cc[nH]c2n1` [Example 72, (6-((2-((4-methoxy-6-(4-methylpiperazin-1-yl)-[1,1′-biphenyl]-3-yl)amino)-7H-pyrrolo[2,3-d]pyrimidin-4-yl)amino)quinoxalin-5-yl)dimethyl-phosphine oxide], the IC50 against EGFR Del19/T790M/C797S is at most 0.05 µM. In addition, the GI50 (in experiment [1]; in the experiment on BaF3-EGFR (WT) cells) was over 0.1 µM throughout.
As to `COc1cc(N2CCN(CC3(F)CC3)CC2)c(-c2cnn(C)c2)cc1Nc1nc(Nc2ccc3nccnc3c2P(C)(C)=O)c2cc[nH]c2n1` [Example 113, (6-((2-((4-(4-((1-fluorocyclo-propyl)methyl)piperazin-1-yl)-2-methoxy-5-(1-methyl-1H-pyrazol-4-yl)phenyl)amino)-7H-pyrrolo[2,3-d]pyrimidin-4-yl)amino)quinoxalin-5-yl)dimethyl-phosphine oxide], the IC50 at EGFR Del19/T790M/C797S was at most 0.05 µM. Besides, the GI50 in experiment [1] was at most 0.05 µM; in the experiment on BaF3-EGFR (WT) cells it was over 0.1 µM.

The record behind these values is patent US20240067668A1, “HETEROARYL DERIVATIVE COMPOUND AND USE THEREOF” (VORONOI INC., priority 2020, published 2024).
